Data: PubChem BioAssay (NCI)
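Following 48 hours of exposure in 96-well plates, responses at five concentrations were used to interpolate endpoints linearly. TGI is the concentration that stops growth completely.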

How the values were obtained:
Experiment in all cases: NCI tumour cell line growth inhibition, 48 h
NCI-H460 lung = test system: NCI-H460 lung
OVCAR-3 ovarian = test system: OVCAR-3 ovarian
HT29 colon = test system: HT29 colon
TK-10 renal = test system: TK-10 renal
T-47D breast = test system: T-47D breast
OVCAR-8 ovarian = test system: OVCAR-8 ovarian
SN12C renal = test system: SN12C renal
HCT-116 colon = test system: HCT-116 colon
MCF7 breast = test system: MCF7 breast
NCI/ADR-RES ovarian = test system: NCI/ADR-RES ovarian
SK-MEL-5 melanoma = test system: SK-MEL-5 melanoma
CAKI-1 renal = test system: CAKI-1 renal
UO-31 renal = test system: UO-31 renal
U251 CNS = test system: U251 CNS
SW-620 colon = test system: SW-620 colon
HCC-2998 colon = test system: HCC-2998 colon
A498 renal = test system: A498 renal
MDA-MB-435 = test system: MDA-MB-435
K-562 leukemia = test system: K-562 leukemia
COLO 205 colon = test system: COLO 205 colon
DU-145 prostate = test system: DU-145 prostate
PC-3 prostate = test system: PC-3 prostate
HS 578T breast = test system: HS 578T breast
OVCAR-4 ovarian = test system: OVCAR-4 ovarian
HOP-62 NSCLC = test system: HOP-62 NSCLC
A549 NSCLC = test system: A549 NSCLC
LOX IMVI melanoma = test system: LOX IMVI melanoma
RXF 393 renal = test system: RXF 393 renal
SK-MEL-28 melanoma = test system: SK-MEL-28 melanoma
NCI-H522 lung = test system: NCI-H522 lung
SF-268 CNS = test system: SF-268 CNS
HL-60(TB) leukemia = test system: HL-60(TB) leukemia
RPMI-8226 leukemia = test system: RPMI-8226 leukemia
UACC-62 melanoma = test system: UACC-62 melanoma
MALME-3M melanoma = test system: MALME-3M melanoma
ACHN renal = test system: ACHN renal
SR leukemia = test system: SR leukemia
MOLT-4 leukemia = test system: MOLT-4 leukemia
HCT-15 colon = test system: HCT-15 colon
NCI-H226 lung = test system: NCI-H226 lung
MDA-N = test system: MDA-N
UACC-257 melanoma = test system: UACC-257 melanoma
KM12 colon = test system: KM12 colon
SNB-19 CNS = test system: SNB-19 CNS
CCRF-CEM leukemia = test system: CCRF-CEM leukemia
OVCAR-5 ovarian = test system: OVCAR-5 ovarian
M14 melanoma = test system: M14 melanoma
SF-295 CNS = test system: SF-295 CNS
786-0 renal = test system: 786-0 renal
EKVX NSCLC = test system: EKVX NSCLC
HOP-92 NSCLC = test system: HOP-92 NSCLC
MDA-MB-231 breast = test system: MDA-MB-231 breast
SF-539 CNS = test system: SF-539 CNS
NCI-H23 lung = test system: NCI-H23 lung
SK-MEL-2 melanoma = test system: SK-MEL-2 melanoma
IGROV1 ovarian = test system: IGROV1 ovarian

Question: Which results are given for `Cn1cnc(N2CCCC2)c(C#N)c1=S`?
Answer: TGI (NCI-H460 lung): > 100 µM; TGI (OVCAR-3 ovarian): > 100 µM; TGI (HT29 colon): > 100 µM; TGI (TK-10 renal): > 100 µM; TGI (T-47D breast): > 100 µM; TGI (OVCAR-8 ovarian): > 100 µM; TGI (SN12C renal): > 100 µM; TGI (HCT-116 colon): > 100 µM; TGI (MCF7 breast): > 100 µM; TGI (NCI/ADR-RES ovarian): > 100 µM; TGI (SK-MEL-5 melanoma): > 100 µM; TGI (CAKI-1 renal): > 100 µM; TGI (UO-31 renal): 70.3 µM; TGI (U251 CNS): > 100 µM; TGI (SW-620 colon): > 100 µM; TGI (HCC-2998 colon): > 100 µM; TGI (A498 renal): > 100 µM; TGI (MDA-MB-435): > 100 µM; TGI (K-562 leukemia): > 100 µM; TGI (COLO 205 colon): > 100 µM; TGI (DU-145 prostate): > 100 µM; TGI (PC-3 prostate): > 100 µM; TGI (HS 578T breast): > 100 µM; TGI (OVCAR-4 ovarian): > 100 µM; TGI (HOP-62 NSCLC): > 100 µM; TGI (A549 NSCLC): > 100 µM; TGI (LOX IMVI melanoma): > 100 µM; TGI (RXF 393 renal): > 100 µM; TGI (SK-MEL-28 melanoma): > 100 µM; TGI (NCI-H522 lung): > 100 µM; TGI (SF-268 CNS): > 100 µM; TGI (HL-60(TB) leukemia): > 100 µM; TGI (RPMI-8226 leukemia): > 100 µM; TGI (UACC-62 melanoma): > 100 µM; TGI (MALME-3M melanoma): > 100 µM; TGI (ACHN renal): > 100 µM; TGI (SR leukemia): > 100 µM; TGI (MOLT-4 leukemia): > 100 µM; TGI (HCT-15 colon): > 100 µM; TGI (NCI-H226 lung): > 100 µM; TGI (MDA-N): > 100 µM; TGI (UACC-257 melanoma): > 100 µM; TGI (KM12 colon): > 100 µM; TGI (SNB-19 CNS): > 100 µM; TGI (CCRF-CEM leukemia): > 100 µM; TGI (OVCAR-5 ovarian): > 100 µM; TGI (M14 melanoma): > 100 µM; TGI (SF-295 CNS): > 100 µM; TGI (786-0 renal): > 100 µM; TGI (EKVX NSCLC): > 100 µM; TGI (HOP-92 NSCLC): > 100 µM; TGI (MDA-MB-231 breast): > 100 µM; TGI (SF-539 CNS): > 100 µM; TGI (NCI-H23 lung): > 100 µM; TGI (SK-MEL-2 melanoma): > 100 µM; TGI (IGROV1 ovarian): > 100 µM
